In test [1] the test system is murine bone marrow-derived dendritic cells. Description: mTNF and mIL-6 ELISA in murine bone-marrow-derived dendritic cells. The format is cell-based. The conditions noted are these: murine BMDCs, 18 hours. The method, then:
FIGS. 4A-4D. PVP-179 activates human macrophages and dendritic cells. FIGS. 4A-4B: Murine mononuclear cells were isolated from bone marrow and induced differentiation into dendritic cells (with GM-CSF and IL-4). After 5 days of culturing, these bone-marrow-derived dendritic cells (BMDCs) were stimulated with PVP-179 or MPLA for 18 hours at indicated concentrations. The supernatants were analyzed via ELISA where each dot in the graph represents the mean production of mTNF (FIG. 4A) and mIL-6 (FIG. 4B). N=6 for PVP-179, N=3 for MPLA. Two-way Anova was performed to determine statistical significance. The comparisons shown are compared to control group (0 M PVP-179). FIGS. 4C-4D: PBMCs were isolated from blood of adult human donors. CD14+ monocytes were specifically isolated from the PBMCs and were then cultured in 10% autologous plasma and induced to differentiate into macrophages with M-CSF (FIG. 4C), or dendritic cells with GM-CSF and IL-4 (FIG. 4D). After 5 days, cells were harvested from each differentiated cell type (macrophages: Mφ; dendritic cells: MoDCs) and a 96-well plate was setup with 100,000 cells/well. Cells were then stimulated with indicated concentrations of PVP-179 or R848 (33 μM) or LPS (100 ng/mL). After 20-24 hours of incubation, supernatants were harvested and applied to TNF ELISA. N=2 donors.

The subject of test [2] is human adult and elderly PBMCs. Put plainly: 14-multiplex cytokine assay in PBMC supernatants. The format is cell-based. The source says:
FIGS. 1A-1D. Discovery of PVP-179 in a human PBMC high-throughput screen. FIG. 1A: A graphical overview depicting screen approach. From a high-throughput screen previously conducted, 310 molecules were identified to be activators of either THP-1 cells (monocyte cell line) or primary human adult peripheral blood mononuclear cells (PBMCs). These 310 molecules were assembled into a stimulation plate and then applied to the PBMCs of 4 elderly donors (cultured with 10% autologous plasma). […] Z scores were averaged across all four elderly donors. The Z score and chemical structure for PVP-179 are indicated. FIG. 1C: Human adult or elderly PBMCs (cultured with 10% autologous plasma) were stimulated with PVP-179 in a two-point concentration titration manner. After 18 hours of incubation, supernatant was processed for ELISA-based measurement of TNF production. N=4 donors. FIG. 1D: As in FIG. 1C, the supernatants were collected, and 14 cytokines were measured by multiplex assay. […] N=4 donors each.
The activity of PVP-179 was confirmed in a 96-well format in both human adult and elderly PBMCs.

In test [3] the test system is null HEK cells. Put plainly: HEK-Null reporter cell line (reporter gene only). The format is cell-based, human. The settings on record: negative control cells, even at higher concentrations. The protocol:
FIGS. 3A-3E. PVP-179 is a TLR8 agonist. FIG. 3A: PVP-179 was sent to InvivoGen for PRR ligand screening service. Various cells lines were utilized to screen for PVP-179-induced ([…]) activation of TLRs, NOD1/2, RIG-I/MDA-5, Dectin-1 or Mincle receptor. The heat-map depicts percentage activity compared to the positive control for each receptor. FIG. 3B: PVP-179 induced activity (% activity compared to the positive control: CL075 at 1 μg/mL) in HEK-293 cells specifically expressing hTLR8. In brief, these cells have an NF-κB/AP-1-inducible secreted embryonic alkaline phosphatase (SEAP) reporter gene which allows monitoring of signaling via TLR8. After incubation for 16-24 hours, supernatant harvested from the cells is mixed with media containing SEAP-substrate and the optical density (OD) is measured at 650 nm using a spectrophotometer. FIG. 3C: As in FIG. 3B, HEK cells specifically expressing hTLR2, hTLR7, or hTLR8, in addition to the HEK-Null cell line carrying only the reporter gene, were stimulated with the indicated concentrations of PVP-179. […] PVP-179 activity is expressed as a percentage of NF-κB induced in the cells stimulated with TNF (positive control for each cell line). […] The supernatants were harvested after 20-24 hours and SEAP production (to assess NF-κB activity) was measured using QUANTIBlue assay. […]

As for `CCCCn1c(/N=C/c2nc3ccccc3n2C)nc2ccccc21` [PVP-179], the “cytokine inducing activity (mTNF, mIL-6)” value in test [1] was “minimal cytokine inducing activity”. The “innate immune response (cytokine responses), elder vs younger adult leukocytes” value in test [2] (14-multiplex assay) was “greater innate immune response in elder leukocytes than in younger adult controls”. In test [2] (similarly to R848 at 25 μM), the “proinflammatory cytokine and chemokine induction (TNF, IL-6, IL-8, IL-10, IL-12 p40, IL-12 p70, IP-10, CCL5, CCL3, MCP1, GM-CSF, IFN-γ, IFN-α2, IL1-β)” value is on record as “titration-dependent concentration of proinflammatory cytokines”. For the same compound, the “NF-κB activity in null HEK cells” value in test [3] was “no activity was detected”.

These data come from patent publication US20250041278A1, “TLR8 AGONIST FOR MODULATING IMMUNE RESPONSE” (The Children's Medical Center Corporation, priority 2021, published 2025).
